Values quoted from earlier work, collected in the CATMoS acute toxicity set (Mansouri et al. 2021).
Where “and” joins values, the source holds several entries; their conditions need not be identical. Equal entries are not always repeated.

Assay: rat acute oral toxicity
Details: in vivo

Structure (SMILES)	LD50
O=Cc1ccc(O)cc1O	400 mg/kg
CN(C)CCNN	2110 mg/kg
COc1cc(NC(=O)C(N=Nc2ccc(-c3ccc(N=NC(C(C)=O)C(=O)Nc4ccc(C)cc4C)c(Cl)c3)cc2Cl)C(C)=O)c(OC)cc1Cl (stereo not drawn)	2230 mg/kg
Fc1cc2[nH]c(C(F)(F)F)nc2cc1Cl	8.66 mg/kg
c1ccc([B-](c2ccccc2)(c2ccccc2)c2ccccc2)cc1	288 mg/kg
O=C(O)Cn1c(=O)n(Cc2ccc(Br)cc2F)c(=O)c2ccc(F)cc21	2140 mg/kg
Oc1nc(O)nc(O)n1	7700 mg/kg
O=C(O)Cc1cc(I)c(Oc2cc(I)c(O)c(I)c2)c(I)c1	0.825 mg/kg
NCCN1CCOCC1	3000 mg/kg
c1cc2c(cc1C1CO1)O2 (stereo not drawn)	2830 mg/kg
CC(O)C1CCCCC1 (stereo not drawn)	2100 mg/kg
CC(C)COc1ccc2ccccc2c1	5930 mg/kg
COc1ccc2c(c1)Sc1ccccc1N2C1CCCN(C)C1 (stereo not drawn)	750 mg/kg
COP(=S)(OC)SCn1nc(-c2ccccc2)ccc1=O	18800 mg/kg
CCC(C)=C1C(=O)N(c2ccccc2)N(c2ccccc2)C1=O	2020 mg/kg
CC1(C)N=C(N)N=C(N)N1c1ccccc1	447 mg/kg
COP(=S)(OC)SCC(=O)CNC(=O)Oc1cccc(C(C)C)c1	432 mg/kg
CC1(C)[C@H](C(=O)O[C@H](C#N)c2cccc(Oc3ccccc3)c2)[C@@H]1/C=C(\Cl)C(F)(F)F (single isomer, unassigned)	56 mg/kg
CN(C)C(=S)N/N=C/c1ccc([N+](=O)[O-])o1	750 mg/kg
CCc1ccccc1N	1260 mg/kg
C[Si](Cl)(Cl)CCCC#N	650 mg/kg
CC(C)NCC(O)COc1ccccc1C1CCCCC1 (stereo not drawn)	1850 mg/kg
CN(Sc1cc(Cl)ccc1Cl)C(=O)Oc1cccc2c1OC(C)(C)C2	25 mg/kg
COC(=O)c1cccc(N=NN(C)C)c1	60 mg/kg

Structure (SMILES)	LD50
N#CSc1cccc(C(=O)O)c1	73 mg/kg
CCNc1nc(Cl)nc(N(CC)CC)n1	594 mg/kg
O=C(c1ccccc1)c1ccc(O)cc1	12100 mg/kg
CC(C)=NNC(=O)CSc1cc(Oc2ccc(C)cc2)ncn1	900 mg/kg
COc1cc(C2c3cc4c(cc3C(OC3OC5COC(c6ccccc6)OC5C(O)C3O)C3COC(=O)C23)OCO4)cc(OC)c1O (stereo not drawn)	823 mg/kg
Cc1cccc(C)c1Nc1ncccc1C(=O)O	2.3 mg/kg
O=C(C=Cc1ccccc1)NO	2140 mg/kg
COc1cc(C(=O)OCCCN(C)CCN(C)CCCOC(=O)c2cc(OC)c(OC)c(OC)c2)cc(OC)c1OC	2550 mg/kg
COc1cc(-n2ccnc2)ncn1	400 mg/kg
CNCCCN1c2ccccc2CCc2ccccc21	375 mg/kg and 871 mg/kg
CCCS(=O)(=O)/C=C/S(=O)(=O)CCC	200 mg/kg
CN1CCC23c4c5ccc(O)c4OC2C(N=[N+]=[N-])CCC3(O)C1C5 (stereo not drawn)	190 mg/kg
COP(=O)(OC)SC(C)C	108 mg/kg
C[Si](C)(C)CC(=O)O	3000 mg/kg
CCC(C)(N)C#N (stereo not drawn)	74 mg/kg
FC(F)(F)c1nc2c(Cl)c(Br)c(Cl)c(Br)c2[nH]1	3.43 mg/kg
Cc1cccc(C)c1N(COC(C)C)C(=O)CCl	975 mg/kg
COC(CN1CCN(CC(O)C(OC)c2ccccc2)CC1)c1ccccc1 (stereo not drawn)	435 mg/kg
COC(OC)c1ccccc1[N+](=O)[O-]	3420 mg/kg
CCN(CC)CCN1C(=O)NC(c2ccccc2)(c2ccccc2)C1=O	1300 mg/kg
N#Cc1ccc(F)cc1C#N	14 mg/kg
O=[N+]([O-])c1cc(Cl)c(N=Nc2ccc(N3CCS(=O)(=O)CC3)cc2)c(Cl)c1	3200 mg/kg
N#Cc1ccccc1C#N	30 mg/kg
CNC(=O)Oc1cccc2c(O)cccc12	297 mg/kg

Structure (SMILES)	LD50
COc1ccc(-c2cc(N)c3c(c2O)C(=O)c2c(N)ccc(O)c2C3=O)cc1	6380 mg/kg
CCOP(=S)(OCC)Oc1cc([N+](=O)[O-])c(Cl)cc1Cl	100 mg/kg
O=C1CN=C(c2ccccc2)c2cc([N+](=O)[O-])ccc2N1	825 mg/kg
O=C(O)CCCOc1ccc(Cl)cc1Cl	700 mg/kg
CN(C)C(=O)CCCOC(=O)C(C)(C)Oc1ccc(Cl)cc1	2480 mg/kg
CC(O)c1cccc(N)c1 (stereo not drawn)	3100 mg/kg
CCC12CCCN3CCc4c(n(c5cc(Br)ccc45)C(O)(C(=O)OC)C1)C32 (stereo not drawn)	1740 mg/kg
COCC=O	2330 mg/kg
ClC=Cc1ccccc1	5200 mg/kg
COc1ccccc1OC1CCN(CCCC(=O)c2ccc(F)cc2)C1 (stereo not drawn)	241 mg/kg
C=C1C(=O)O[C@@H]2C[C@@H](C)[C@@H]3C=CC(=O)[C@@]3(C)[C@@H](O)[C@H]12	125 mg/kg
CCNCC(O)c1cccc(O)c1 (stereo not drawn)	114 mg/kg
CCCCCCC=NO	1040 mg/kg
CC(C)(C)[C@H](O)/C(=C\c1ccc(Cl)cc1)n1cncn1	430 mg/kg
COc1ccc2c(-c3ccc(OCC(O)CNC(C)C)cc3)c(-c3ccccc3)c(=O)oc2c1 (stereo not drawn)	1000 mg/kg
CC(CC(C#N)(c1ccccc1)C(C)C)N(C)C (stereo not drawn)	250 mg/kg
CC(CN(C)C)CN1c2ccccc2OCOc2ccc(Cl)cc21 (stereo not drawn)	600 mg/kg
O=C(OCC(O)CO)c1ccccc1Nc1ccnc2cc(Cl)ccc12 (stereo not drawn)	2300 mg/kg
O=C(O)CN(CCOCCOCCN(CC(=O)O)CC(=O)O)CC(=O)O	4000 mg/kg and 3590 mg/kg
O=C1C(=NNc2ccccc2S(=O)(=O)O)C(S(=O)(=O)O)=Cc2cc(S(=O)(=O)O)cc(Nc3nc(Cl)nc(Nc4ccccc4)n3)c21	6730 mg/kg
CN1CCN(C2=Nc3cc(Cl)ccc3Nc3ccccc32)CC1	251 mg/kg
Cc1ccccc1Oc1cccnn1	3090 mg/kg
CCCCS	1500 mg/kg
CCC(CC)COCCOCCCN1C(=O)C2C3C=CC(C3)C2C1=O (stereo not drawn)	9500 mg/kg

Structure (SMILES)	LD50
COC(=O)Nc1nc2cc(C(=O)c3ccccc3)ccc2[nH]1	714 mg/kg
CN(C)CCCn1c2c(c3ccccc31)CCCCCC2	775 mg/kg
CCOC(=O)C1CC2CC1C1OC21 (stereo not drawn)	4760 mg/kg
CCCCCCCCCCCCCCCCCC(=O)NC(CCC(=O)O)C(=O)O (stereo not drawn)	3000 mg/kg
CCOP(=O)(OCC)SCCSCC	1.5 mg/kg
CCCCCCCCCCCCCCCCCCN(C)C	200 mg/kg
O=P1(NCCCl)OCCCN1CCCl (stereo not drawn)	143 mg/kg
CN(N=O)c1cccnc1	10 mg/kg
O=C(O)Cc1sc(-c2ccccc2)nc1-c1ccc(Cl)cc1	409 mg/kg
C=C(C#N)OC(C)=O	100 mg/kg
CC(C)=CCN(CC=C(C)C)CCC(C(N)=O)c1cccc2ccccc12 (stereo not drawn)	353 mg/kg
COP(=O)(Oc1ccccc1)OC(Br)C(Cl)(Cl)Br (stereo not drawn)	500 mg/kg
COc1cc2[nH]c(=N)sc2cc1OC	1160 mg/kg
C=C(C)C(C)=O	180 mg/kg
Cc1noc(NS(=O)(=O)c2ccc(N)cc2)c1C	10000 mg/kg
Cc1nc2cnc3ccccc3c2s1	900 mg/kg and 950 mg/kg
C=CCOC(=O)/C=C\C(=O)OCC=C	300 mg/kg
c1ccc(C2(N3CCCCC3)CCCCC2)cc1	135 mg/kg
CN(C)C(=O)Cl	1000 mg/kg
C[C@H](NCC=C(c1ccsc1)c1ccsc1)[C@H](O)c1ccccc1	6600 mg/kg
ClCc1ccccc1CCl	2260 mg/kg
CN1CCN(CC/C=C2/c3ccccc3Sc3ccc(S(=O)(=O)N(C)C)cc32)CC1	410 mg/kg
CC(C)(C)OC(=O)CCl	380 mg/kg
FC(F)(F)C(F)(F)OC(F)(F)C(F)(F)F	20000 mg/kg

Structure (SMILES)	LD50
CC(C)C(=O)OCCc1ccccc1	5200 mg/kg
ClCC(Cl)(Cl)CCl	6300 mg/kg
O=C1c2ccccc2C(=O)C1C(=O)C(c1ccccc1)c1ccccc1	1.5 mg/kg
C/C(=C1\CCOC(=O)S1)N(C=O)Cc1cnc(C)nc1N	7600 mg/kg
CC(C)N(C(=O)SCC(Cl)=CCl)C(C)C	395 mg/kg
C=C(C)CN(CC)c1c([N+](=O)[O-])cc(C(F)(F)F)cc1[N+](=O)[O-]	10000 mg/kg
COC1CC(=C(c2cccs2)c2cccs2)C[N+](C)(C)C1 (stereo not drawn)	1210 mg/kg
CC(C)CNC(=O)NS(=O)(=O)c1ccc(Cl)cc1	1100 mg/kg
CC1(C)CC2(NC(=O)N(CCCN3CCC(O)CC3)C2=O)c2cc(Cl)ccc2O1 (stereo not drawn)	858 mg/kg
Fc1c(Br)c(F)c2nc(C(F)(F)F)[nH]c2c1Br	7.23 mg/kg
O=c1oc(=O)c2cc3c(=O)oc(=O)c3cc12	2250 mg/kg
CCOP(=O)(OCC)Oc1nc(Cl)c(Cl)cc1Cl	135 mg/kg
Cc1ccccc1C1OCC(O)CO1 (mixture of isomers)	3400 mg/kg
CCSCc1cnc(C)c(O)c1CO	3770 mg/kg
C[N+]1(CCC(O)(c2ccccc2)c2cccs2)CCOCC1 (stereo not drawn)	2300 mg/kg
NNC(=S)NN	21.6 mg/kg
CCOc1ccc(C(=O)COC(=O)CCC(=O)O)c2ccccc12	3500 mg/kg
O=C(O)c1cccc(O)c1O	1800 mg/kg
CCNC(N)=S	100 mg/kg
CCOP(=S)(OC)SCN1C(=O)c2ccccc2C1=O (stereo not drawn)	50 mg/kg
CC(C)(O)c1ccccc1	1300 mg/kg
Oc1ccc(Cl)cc1Cc1ccccc1	1700 mg/kg
C=C(C)c1ccccc1	4900 mg/kg
CNCCCN	951 mg/kg

Structure (SMILES)	LD50
NCCNCCNCc1ccccc1O	2300 mg/kg
BrC/C=C/CBr	62 mg/kg
Fc1c(Br)c(Cl)c2nc(C(F)(F)F)[nH]c2c1Br	6.28 mg/kg
C#CC(=O)C=CC	71 mg/kg
O=C(O)C(Cl)(Cl)CCl	2460 mg/kg
C[C@H]1C(=O)O[C@@H]2CCN3CC=C(COC(=O)[C@](C)(O)[C@]1(C)O)[C@H]23	66 mg/kg
CC(C)(C)NCC(O)COc1cc(Cl)ccc1Cl (stereo not drawn)	1300 mg/kg
CCN1CCCC(Nc2cc(C)nc(N=C(N)Nc3ccc(Cl)c(Cl)c3)n2)C1 (stereo not drawn)	1040 mg/kg
CN(C)CC/C=C1/c2ccccc2CSc2ccccc21	260 mg/kg
CC(C)[C@@]1(NC(=O)[C@@H]2C[C@@H]3c4cccc5[nH]cc(c45)C[C@H]3N(C)C2)O[C@@]2(O)[C@@H]3CCCN3C(=O)[C@H](Cc3ccccc3)N2C1=O	2640 mg/kg
ClCc1cccc(Oc2ccccc2)c1	1220 mg/kg
Nc1cc(Cl)ccc1O	690 mg/kg
O=C(Cc1ccccc1)NNCc1ccccc1	2500 mg/kg
C#CC(C)N(C)C(=O)Nc1ccc(Cl)cc1 (stereo not drawn)	1790 mg/kg
CCOP(=O)(OCC)Oc1ccc(Cl)cc1Cl	100 mg/kg
CCCCNCCCCCCN	536 mg/kg
CC=CC(C)C1(CC)C(=O)NC(=O)NC1=O (stereo not drawn)	20 mg/kg
CCOC(=O)COc1ccc2c(C)c(CCN(CC)CC)c(=O)oc2c1Cl	1250 mg/kg
CCSC(C)CC1CC(=O)C(/C(CC)=N/OC/C=C/Cl)=C(O)C1 (stereo not drawn)	1360 mg/kg
COc1ccc2cc(CCC(C)=O)ccc2c1	3880 mg/kg
CN1C(=O)CN=C(c2ccccc2F)c2cc([N+](=O)[O-])ccc21	415 mg/kg
Clc1ccc(N=Nc2ccc(NCCCN3CCCCC3)c3c2CCCC3)cc1	1120 mg/kg
CN(C)CCOCCOC(=O)N1c2ccccc2Sc2ccccc21	1500 mg/kg
